{"source": "patent US8691577B2", "about": "“Somatic embryogenesis of Jatropha curcas from ovules” (Joil (S) Pte Ltd., priority 2008, dated 2014)", "key": {"[1]": {"test_system": "embryogenic callus of Jatropha curcas", "experiment": "Production of double haploid plantlets by treating embryogenic callus with a mitotic inhibitor", "format": "cell-based", "method": "Double haploid plants are produced by treating the embryogenic callus with a mitotic inhibitor. In one embodiment, the embryogenic callus is treated with the mitotic inhibitor for one day to three days, preferably three days. In one embodiment, the mitotic inhibitor is colchicine. In one embodiment, the embryogenic callus is treated with 0.1% to 0.5%, preferably 0.5% colchicine. In another embodiment, the mitotic inhibitor is oryzalin. In one embodiment, the embryogenic callus is treated with 0.1% to 0.5%, preferably 0.5% oryzalin. The mitotic inhibitor is added to the embryogenic callus induction medium, described above, prior to transfer of the embryogenic callus to the fresh initiation medium. The culture conditions for culturing in the presence of the mitotic inhibitor is the same as for somatic embryogenic callus induction. Following treatment with the mitotic inhibitor, the treated embryogenic callus is placed on fresh initiation medium for the development and maturation of somatic embryos and cultured as described above. The mature somatic embryos are placed on the germination medium and cultured as described above to germinate double haploid plantlets as described above.\nEmbryogenic callus prepared as described in Example 5 which is above to develop into somatic embryos (after forty days of embryogenic callus induction) was treated with different concentration of colchicines (0.1-1%) for three-days. The culture condition (temperature, photoperiod and light) are same as described above. After the colchicine treatment, the treated embryogenic callus was transferred to fresh initiation medium (MS medium containing 2,4-D (6.78 μM)) and cultured as described in Example 5 for the development of somatic embryos. The mature somatic embryos were transferred to germination media (MS medium fortified with GA3 and IBA) and cultured as described in Example 5 for plantlet development."}, "[2]": {"test_system": "ovule explants of Jatropha curcas", "experiment": "Induction of embryogenic callus from ovule explants on MS initiation medium", "format": "cell-based", "description": "(§1) The initiation medium was MS basal medium (MS mineral salts and vitamins) supplemented with sucrose (3%) as the carbon source and included phytoagar (0.8%) as a gelling agent. The pH of the medium was 5.8. The germination medium was MS basal medium supplemented with sucrose (3%) as the carbon source and included phytogel (0.25%) as a gelling agent. The pH of the medium was 5.8. The media were dispensed into sterilized Petri dish (90×15 mm size, plastic polycarbonate, Canada). The chemicals used for media preparations were of analytical grade (Duchefa Biochemie, Haarlem, The Netherlands and Sigma Aldrich, Inc., St Louis, USA).\nDifferent hormones were added to the media for the development of the method according to the present invention. In general, the media contained a reduced concentration of phytohormones. The hormones that were tested in the media were phytohormones that will affect growth in the desired manner during different stages of tissue culture. Examples of phytohormones that were tested include natural or synthetic auxin (2,4-D, indole-3-acetic acid (IAA), IBA), cytokinin (BA, KN,), GA3, or cytokinin-active urea derivatives (such as TDZ). The hormones were tested singly or in combination. For induction of embryogenic callus, only 2,4-D (2.26, 4.52, 6.78 and 9.02 μM) was effective.\n(§2) The sterilized flower buds were dissected using stereo microscope and the ovules were isolated and injured using dissection needle. The injured ovule explants were inoculated onto initiation medium supplemented with different phytohormones and incubated in dark for 40 days. The callus induced from these ovules was transferred to the fresh initiation medium and cultured in the light (16/8 h (light/dark) photoperiod period, light intensity of 25 μE m^−2s^−1) for somatic embryo development and maturation. The callus with developing and maturing somatic embryos were subcultured every two weeks. The mature cotyledon shaped somatic embryos that developed from this embryogenic callus were transferred to germination medium for germination. The germinating somatic embryos were subcultured every two weeks. The germinated plantlets were hardened and transferred to green house. All cultures were maintained at 25° C.±2° C. with 55%-60% relative humidity. Approximately 12-15 mature cotyledon shaped embryos were developed per 100 mg of embryogenic callus, and 95% of the somatic embryos were developed."}, "[3]": {"test_system": "embryogenic callus from ovules of Jatropha curcas", "experiment": "Somatic embryo development and maturation from embryogenic callus", "format": "cell-based", "method": "as §2\nInduction of callus occurred in MS medium containing different auxins and cytokinins individually as well as in combinations."}, "[4]": {"test_system": "mature somatic embryos of Jatropha curcas", "experiment": "Germination of somatic embryos and growth of plantlets on MS germination medium", "format": "cell-based", "conditions": "for growth of germinated plantlets: added to germination medium (MS with IBA and GA3); for germination of somatic embryos: auxin in combination with GA3 (0.72, 1.44, 2.88, 5.76 μM) in MS medium, IBA 1.23-4.92 μM, IAA 1.42-8.56 μM, NAA 1.34-8.04 μM", "description": "as §1, §2"}, "[5]": {"test_system": "leaf explants of J. curcas", "conditions": "Jha et al. (2007), cited from earlier work"}, "[6]": {"conditions": "hormone alone in MS initiation medium, 2,4-D 2.26, 4.52, 6.78, 9.02 μM, IAA 0.71-5.70 μM, IBA 0.615-4.92 μM"}}, "note": "“Also recorded” adds a separate entry of the source.", "data": [{"compound": "COc1cc2c(c(OC)c1OC)-c1ccc(OC)c(=O)cc1[C@@H](NC(C)=O)CC2", "note": "[colchicines, colchicine]", "values": [{"measurement": "most effective concentration for production of double haploid plantlets", "setting": "[1]; 0.1-1% tested, three days treatment of embryogenic callus", "result": 0.5, "unit": "%"}, {"measurement": "effect on callus at higher concentration", "setting": "[1]; concentration above 0.5%", "result": "callus become brown and died"}, {"measurement": "morphological characters of treated plantlets", "setting": "[1]; plantlets from treated embryogenic callus", "result": "like double haploid"}]}, {"compound": "O=C(O)COc1ccc(Cl)cc1Cl", "note": "[2,4-D, 2,4-dichlorophenoxyacetic acid]", "values": [{"measurement": "induction of embryogenic callus", "setting": "[2]; MS medium supplemented with 2,4-D, dark conditions", "result": "induced embryogenic callus; also recorded: vital"}, {"measurement": "induction of embryogenic callus", "setting": "[2]; MS medium supplemented with 2,4-D, in the presence of light", "result": "not result in the induction of embryogenic callus"}, {"measurement": "induction of embryogenic callus", "setting": "[2]; [6]", "result": "effective in inducing embryogenic callus"}, {"measurement": "somatic embryo development (globular, heart, torpedo and cotyledon-shaped)", "setting": "[3]; MS medium containing 2,4-D", "result": "effective"}, {"measurement": "outcome of continuous culture of somatic embryos", "setting": "[3]; continuous culture in MS medium containing 2,4-D", "result": "abnormal somatic embryo formation without germination"}]}, {"compound": "c1coc(CNc2ncnc3[nH]cnc23)c1", "note": "[KN, kinetin]", "values": [{"measurement": "growth of germinated plantlets", "setting": "[4]", "result": "enhanced the growth of germinated plantlets"}, {"measurement": "development of somatic embryos", "setting": "[5]; MS medium with KN 2.3 μM and IBA 1.0 μM", "result": "developed"}, {"measurement": "induction of embryogenic callus from leaf explants", "setting": "[5]; MS medium with KN 9.3 μM", "result": "induced"}]}, {"compound": "O=C(Nc1ccccc1)Nc1cnns1", "note": "[TDZ, thidiazuron]", "values": [{"measurement": "growth of germinated plantlets", "setting": "[4]", "result": "enhanced the growth of germinated plantlets"}]}, {"compound": "O=C(O)CCCc1c[nH]c2ccccc12", "note": "[IBA, indole-3-butyric acid]", "values": [{"measurement": "induction of embryogenic callus", "setting": "[2]; [6]", "result": "induced only non-embryogenic callus"}, {"measurement": "germination of somatic embryos", "setting": "[4]", "result": "effective; also recorded: occurred"}]}, {"compound": "O=C(O)Cc1c[nH]c2ccccc12", "note": "[IAA, indole-3-acetic acid]", "values": [{"measurement": "induction of embryogenic callus", "setting": "[2]; [6]", "result": "induced only non-embryogenic callus"}, {"measurement": "germination of somatic embryos", "setting": "[4]", "result": "not effective"}]}, {"compound": "O=C(O)Cc1cccc2ccccc12", "note": "[NAA]", "values": [{"measurement": "germination of somatic embryos", "setting": "[4]", "result": "not effective"}]}, {"compound": "Nc1ncnc2nc[nH]c12.O=S(=O)(O)O", "note": "[AdSO4, adenine sulphate]", "values": [{"measurement": "type of callus induced", "setting": "[2]; addition to callus induction medium", "result": "induction of greenish compact callus that becomes non-embryogenic"}, {"measurement": "growth of germinated plantlets", "setting": "[4]; sulphate", "result": "enhanced the growth of germinated plantlets"}, {"measurement": "effect on somatic embryo development", "setting": "[5]; 13.6 μM added", "result": "stimulated the process of somatic embryo development"}]}, {"compound": "c1ccc(CNc2ncnc3nc[nH]c23)cc1", "note": "[BA, 6-benzylaminopurine]", "values": [{"measurement": "growth of germinated plantlets", "setting": "[4]", "result": "enhanced the growth of germinated plantlets"}]}]}
